Results as given in US20130252930A1 (BIOMARIN PHARMACEUTICAL INC., priority 2010, published 2013).
Read-outs that look alike come from different tables or passages of the source.

Key:
[1] = biological target: T1, CYP17 (human testicular microsome) (Homo sapiens, UniProt P05093); assay: CYP17 enzymatic assay (IC50) (Biological Example 4); format: biochemical
T1 construct: using microsomal fraction from human testis (Celsis Cat #S00110) as the enzyme source; tissue Celsis S00110; host or cells: human testis microsomal fraction
T1 sequence (P05093 1-508): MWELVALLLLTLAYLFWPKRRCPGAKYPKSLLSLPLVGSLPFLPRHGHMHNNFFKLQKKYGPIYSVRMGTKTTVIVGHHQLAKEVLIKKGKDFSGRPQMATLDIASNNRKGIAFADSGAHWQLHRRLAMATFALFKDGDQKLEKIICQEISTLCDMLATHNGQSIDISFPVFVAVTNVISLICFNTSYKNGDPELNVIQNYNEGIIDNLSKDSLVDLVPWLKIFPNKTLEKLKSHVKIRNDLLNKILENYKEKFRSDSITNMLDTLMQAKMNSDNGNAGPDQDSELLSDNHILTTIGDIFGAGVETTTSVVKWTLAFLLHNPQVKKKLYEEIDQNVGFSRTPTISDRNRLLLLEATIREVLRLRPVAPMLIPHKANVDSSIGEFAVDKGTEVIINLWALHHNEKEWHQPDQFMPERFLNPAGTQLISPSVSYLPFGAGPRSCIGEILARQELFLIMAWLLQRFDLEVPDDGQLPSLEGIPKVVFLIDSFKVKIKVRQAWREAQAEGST

[2] = biological target: T2, CYP17 (H295R cells) (Homo sapiens, UniProt P05093); assay: CYP17 cellular assay (IC50), testosterone in H295R cells (Biological Example 7); format: cell-based
T2 construct: endogenous in cells; host or cells: H295R cells
T2 sequence (P05093 1-508): T1 sequence (P05093 1-508)
Protocol: The assays were performed in 96-well plates. Typically H295R cells were seeded at 4.5×10^4 cells/well in 100 μL Growth Medium containing DMEM/F-12 (Gibco/Invitrogen; 11330-032), 2.5% Nu-Serum (BD Bioscience; 355100) and ITS (BD Bioscience; 354352), and cultured at 37° C., 5% CO2 for 24 hr. The next day, media were carefully removed and cells were washed twice with 200 μL 1×HBSS++. Test compounds were then added to the cells at 100, 10, 1, 0.1 nM final concentrations in 125 μL volume per well in serum-free media containing DMEM/F-12 and ITS+ Premix (BD Bioscience; 354352) with 0.1% methanol. Serum-free media with 0.1% methanol without test compound was used as control. Cells were incubated with compounds at 37° C. for additional 24 hours, and the cultured media from each compound treated well was harvested for measurement of testosterone concentration by ELISA according to manufacturer's instruction (Assay Design). Testosterone concentration of each sample was plotted vs. the concentration of the test compounds.

[3] = Human liver microsome stability assay (Biological Example 8b); details: liver microsomes, pH 7.4
Protocol: The reaction was started with addition of excess NADPH (5 mg/mL, 15 μL in 0.1 M potassium phosphate buffer, 1.0 mM EDTA, pH 7.4), the total volume is 45 μL (compound final concentration was 1 μM). […] 50 μL of the supernatant was transferred from each well into a 96-well sample plate containing 50 μL of ultra-pure water (Millipore) for LC-MS/MS analysis.

[4] = biological target: T1, CYP17 (human testicular microsome); assay: CYP17 enzymatic assay (% inhibition at 10 nM), version 1 (Biological Example 5); format: biochemical; details: 10 nM compound, DHEA by ELISA, read-out: Biological Example No. 5: CYP17 percent inhibition at 10 nM (version 1)
[5] = biological target: T3, Cyp21 enzyme (Human HEK 293-Cyp21 stable transfected cells) (Homo sapiens, UniProt P08686); assay: CYP21-HEK293 enzymatic assay (IC50) (Biological Example 11); format: cell-based; details: HEK 293-Cyp21 cells
T3 construct: expressed in transfected cells
T3 sequence (P08686 1-495): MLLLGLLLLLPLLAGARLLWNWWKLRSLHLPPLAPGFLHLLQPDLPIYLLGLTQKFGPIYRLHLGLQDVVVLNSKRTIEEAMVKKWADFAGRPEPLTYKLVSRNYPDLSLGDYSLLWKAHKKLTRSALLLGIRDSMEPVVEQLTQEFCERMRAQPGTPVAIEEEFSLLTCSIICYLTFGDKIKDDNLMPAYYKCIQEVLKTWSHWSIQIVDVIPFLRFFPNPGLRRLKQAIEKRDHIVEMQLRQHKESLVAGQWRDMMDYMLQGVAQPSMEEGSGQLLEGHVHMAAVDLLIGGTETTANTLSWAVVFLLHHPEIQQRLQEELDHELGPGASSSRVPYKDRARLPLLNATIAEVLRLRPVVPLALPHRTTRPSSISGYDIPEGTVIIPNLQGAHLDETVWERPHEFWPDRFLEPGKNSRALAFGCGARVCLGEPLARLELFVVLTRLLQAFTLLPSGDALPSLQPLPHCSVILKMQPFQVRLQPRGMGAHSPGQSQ

[6] = biological target: T1, CYP17 (human testicular microsome); assay: CYP17 enzymatic assay (% inhibition at 1 nM) (Biological Example 12); format: biochemical; details: compound at 1 nM
[7] = human testicular microsome, read-out: CYP17 enzymatic assay IC50 (Biological Example No. 4)
[8] = read-out: CYP21-HEK293 enzymatic assay IC50 (Biological Example No. 11)
[9] = H295R cells, testosterone, read-out: CYP17 cellular assay IC50 (Biological Example No. 7)
[10] = read-out: CYP17 enzymatic assay % inhibition at 1 nM (Biological Example No. 12)
[11] = human testicular microsome, read-out: Biological Example No. 4: CYP17 enzymatic assay IC50
[12] = read-out: Biological Example No. 11: CYP21-HEK293 enzymatic assay IC50
[13] = H295R cells, testosterone, read-out: Biological Example No. 7: CYP17 cellular assay IC50
[14] = read-out: Biological Example No. 12: CYP17 enzymatic assay % inhibition at 1 nM

Compound	half-life at 1 μM [3] [min]	IC50 [5, 8] [nM]	IC50 [2, 9] [nM]	inhibition at 0.001 µM [6, 10] [%]	IC50 [1, 11] [nM]	IC50 [5, 12] [nM]	IC50 [2, 13] [nM]	inhibition at 0.001 µM [6, 14] [%]	further results
COc1cncc(C2=CC=C3[C@@H]4CC=C5C[C@@H](O)CC[C@]5(C)[C@H]4CC[C@]23C)c1 [Compound 81, (3S,10R,13S)-17-(5-methoxypyridin-3-yl)-10,13-dimethyl-2,3,4,7,8,9,10,11,12,13-decahydro-1H-cyclopenta[a]phenanthren-3-ol]	> 50	–	–	–	–	–	–	–	IC50 ([1]; human testicular microsome, DHEA by ELISA, read-out: Biological Example No. 4: CYP17 enzymatic assay IC50): < 11 nM; IC50 ([2]; H295R cells, testosterone by ELISA, 24 hours, read-out: Biological Example No. 7: CYP17 cellular assay IC50): < 15 nM; inhibition at 0.01 µM [4]: > 80%
C[C@]12CC[C@H]3[C@@H](CCC4=CC(=O)C=C[C@@]43C)C1=CC=C2c1cccnc1 [Compound 290, (10R,13S)-10,13-dimethyl-17-(pyridin-3-yl)-6,7,8,9,10,11,12,13-octahydro-3H-cyclopenta[a]phenanthren-3-one]	1 to 50	10 to 100	< 15	> 50	–	–	–	–	IC50 [1, 7]: < 11 nM
CC1=C2CC[C@@H]3[C@H](CC[C@]4(C)C(c5cccnc5)=CC[C@@H]34)[C@@]2(C)CCC1=O [Compound 300, (10R,13S)-4,10,13-trimethyl-17-(pyridin-3-yl)-6,7,8,9,10,11,12,13,14,15-decahydro-1H-cyclopenta[a]phenanthren-3(2H)-one]	–	–	–	–	< 11	> 1000	< 15	> 50	–
CC1C[C@@H]2[C@H](CC[C@]3(C)C(c4cccnc4)=CC[C@@H]23)[C@@]2(C)CCC(=O)C=C12 (stereo partly drawn) [Compound 309, (10R,13S)-6,10,13-trimethyl-17-(pyridin-3-yl)-6,7,8,9,10,11,12,13,14,15-decahydro-1H-cyclopenta[a]phenanthren-3(2H)-one]	1 to 50	10 to 100	< 15	> 50	–	–	–	–	IC50 [1]: < 11 nM
C=C1C[C@@H]2[C@H](CC[C@]3(C)C(c4cccnc4)=CC[C@@H]23)[C@@]2(C)C=CC(=O)C=C12 [Compound 311, (10R,13S)-10,13-dimethyl-6-methylene-17-(pyridin-3-yl)-6,7,8,9,10,11,12,13,14,15-decahydro-3H-cyclopenta[a]phenanthren-3-one]	1 to 50	< 10	< 15	> 50	–	–	–	–	IC50 [1, 7]: < 11 nM
C=C1C[C@@H]2[C@H](CC[C@]3(C)C(c4cccnc4)=CC[C@@H]23)[C@@]2(C)CCC(=O)C=C12 [Compound 312, (10R,13S)-10,13-dimethyl-6-methylene-17-(pyridin-3-yl)-6,7,8,9,10,11,12,13,14,15-decahydro-1H-cyclopenta[a]phenanthren-3(2H)-one]	1 to 50	10 to 100	< 15	> 50	–	–	–	–	IC50 [1, 7]: < 11 nM
C[C@]12CCC(=O)C=C1C1(CC1)C[C@@H]1[C@@H]2CC[C@]2(C)C(c3cccnc3)=CC[C@@H]12 [Compound 313, (10R,13S)-10,13-dimethyl-17-(pyridin-3-yl)-1,7,8,9,10,11,12,13,14,15-decahydrospiro[cyclopenta[a]phenanthrene-6,1′-cyclopropan]-3(2H)-one]	1 to 50	< 10	< 15	> 50	–	–	–	–	IC50 [1, 7]: < 11 nM
C[C@]12C=CC(=O)C=C1C1(CC1)C[C@@H]1[C@@H]2CC[C@]2(C)C(c3cccnc3)=CC[C@@H]12 [Compound 316, (10R,13S)-10,13-dimethyl-17-(pyridin-3-yl)-7,8,9,11,12,13,14,15-octahydrospiro[cyclopenta[a]phenanthrene-6,1′-cyclopropan]-3(10H)-one]	1 to 50	–	–	–	–	< 10	< 15	10 to 50	IC50 [1]: < 11 nM
CC1C[C@@H]2[C@H](CC[C@]3(C)C(c4cccnc4)=CC[C@@H]23)[C@@]2(C)C=CC(=O)C=C12 (stereo partly drawn) [Compound 318, (10R,13S)-6,10,13-trimethyl-17-(pyridin-3-yl)-6,7,8,9,10,11,12,13,14,15-decahydro-3H-cyclopenta[a]phenanthren-3-one]	1 to 50	–	–	–	–	< 10	< 15	> 50	–
C=C1C[C@@H]2[C@H](CC[C@]3(C)C(c4cncc(F)c4)=CC[C@@H]23)[C@@]2(C)C=CC(=O)C=C12 [Compound 320, (10R,13S)-17-(5-fluoropyridin-3-yl)-10,13-dimethyl-6-methylene-6,7,8,9,10,11,12,13,14,15-decahydro-3H-cyclopenta[a]phenanthren-3-one]	1 to 50	–	–	–	< 11	> 100	< 15	–	–
CC1CC2C3=CC=C(c4cncc(F)c4)[C@@]3(C)CCC2[C@@]2(C)CCC(=O)C=C12 (stereo partly drawn) [Compound 327, (10R,13S)-17-(5-fluoropyridin-3-yl)-6,10,13-trimethyl-6,7,8,9,10,11,12,13-octahydro-1H-cyclopenta[a]phenanthren-3(2H)-one]	1 to 50	–	–	–	–	< 10	–	10 to 50	IC50 [2]: < 15 nM
CC1CC2C(CC[C@]3(C)C(c4cncc(F)c4)=CCC23)[C@@]2(C)CCC(=O)C=C12 (stereo partly drawn) [Compound 342, (10R,13S)-17-(5-fluoropyridin-3-yl)-6,10,13-trimethyl-6,7,8,9,10,11,12,13,14,15-decahydro-1H-cyclopenta[a]phenanthren-3(2H)-one]	–	–	–	–	< 11	> 100	< 15	> 50	–
C[C@]12CC[C@H]3[C@@H](CCC4=CC(=O)CC[C@@]43C)C1=CC=C2c1cncc(F)c1 [Compound 352, (10R,13S)-17-(5-fluoropyridin-3-yl)-10,13-dimethyl-6,7,8,9,10,11,12,13-octahydro-1H-cyclopenta[a]phenanthren-3(2H)-one]	1 to 50	–	–	–	< 11	10 to 100	< 15	> 50	–
CC1CC2C(CC[C@]3(C)C(c4cccnc4)=CCC23)[C@@]2(C)CCNC(=O)C=C12 (stereo partly drawn) [Compound 368, (5aR,7aS)-5a,7a,12-trimethyl-8-(pyridin-3-yl)-3,4,5,5a,5b,6,7,7a,10,10a,11,12-dodecahydrocyclopenta[5,6]naphtho[1,2-d]azepin-2(10bH)-one]	1 to 50	–	–	–	< 11	< 10	< 15	> 50	–
